Tests used:
[1] = system: tobacco plants; experiment: Treatment of tobacco plants with pelargonic acid: phytotoxicity (Example 3); type: in vivo, tobacco plants of the Burley and Virginia; conditions: PA 3.4, 5.1, 6.8 g/l; V 450-460 l/ha; interval of 7 days between treatments
Experimental: (§1) In an experimental embodiment tobacco plants of the Burley and Virginia were treated with a Volume (V) of 450-460l/ha with a composition comprising pelargonic acid (PA) at different concentrations (e.g., 3.4 g/l, 5.1 g/l and 6.8 g/l) with an interval of 7 days between treatments; the exact experimental details can be found in Table 1.

[2] = system: suckers on tobacco plant; experiment: Use of pelargonic acid for inhibiting the growth of suckers (Example 1, FIG. 1); type: in vivo, tobacco plant of the Burley variety; conditions: Burley tobacco; pelargonic acid applied at 0.5 g/l to 50.0 g/l; FIG. 1B
Excerpt: To better exemplify reference is made to FIGS. 1A and 1B, which show a tobacco plant (100) of the Burley variety. […] It can be observed that at full floral development (i.e. ˜3 to 4 months) suckers (150) started to proliferate and grew into auxiliary stems.

[3] = system: suckers on tobacco plants; experiment: Treatment of tobacco plants with pelargonic acid: sucker growth inhibition (Example 3); type: in vivo, tobacco plants of the Burley and Virginia; conditions: PA 3.4, 5.1, 6.8 g/l; V 450-460 l/ha; interval of 7 days between treatments; across all plants
Experimental: as §1

## CCCCCCCCC(=O)O [pelargonic acid]
[1]
  phytotoxicity or adverse ecological effects: no phytotoxicity or adverse ecological effects were observed
[2]
  sucker growth: fully inhibited
[3]
  sucker growth inhibition: > 90%

From US11395488B2, “Use of compositions comprising pelargonic acid and specific non ionic surfactants for inhibiting the growth of suckers on plants” (BELCHIM CROP PROTECTION NV, priority 2016, dated 2022)
